How the values were obtained:
[1] = system: hTERT; assay: hTERT protein levels by immunoblotting in H1299 cells; type: cell-based, human
Experimental: FIG. 1. hTERT is sensitive to the Hsp90 antagonist geldanamycin. (A) Down-regulation of ectopically expressed hTERT by GA. H1299 cells transfected with Flag-hTERT or Flag-TRF1 were treated with 0.1 μM GA for the indicated times. Lysates were resolved on 8% SDS-PAGE and analyzed by immunoblotting using an anti-Flag antibody probe. Cells were pretreated with 10 μM MG132 or E-64 for 2 hours, either alone or before treatment with GA. (B) Concentration dependence of GA on hTERT. H1299 cells transfected with Flag-hTERT or hTERT-HA were treated for 2 hours with the GA concentration indicated. The hTERT polypeptides were visualized with anti-Flag or anti-HA antibodies as marked by each blot. (C) Down-regulation of endogenous hTERT by GA. H1299 cells were treated with 0.1 μM GA for the indicated times, and cell lysates were analyzed by immunoprecipitation with anti-hTERT antibody followed by immunoblotting using same antibody probe. Cells were pretreated with 10 μM MG132 for 2 hours, either alone or before treatment with GA. Molecular weight markers are shown in kilodaltons. (D) H1299 cells were treated with 0.1 μM GA for the indicated times, and cell lysates were analyzed for telomerase activity by the TRAP assay. The lane labeled LB corresponds to the negative control (lysis buffer only). ITAS represents the internal telomerase assay standard. (E) Saos-2 cells transfected with Flag-hTERT or hTERT-HA or empty vector were untreated or treated with 0.1 μM GA for 16 hours, and cell lysates were analyzed for telomerase activity using the TRAP assay.
(§1) FIG. 2. hTERT is ubiquitinated prior to proteasome-mediated degradation. (A) H1299 cells were co-transfected with Flag-hTERT and HA-ubiquitin. Cells were either untreated or treated for 2 hours with 10 μg/ml ALLnN or 0.1 μM GA, or a combination of the two as specified above each lane. Immunoprecipitation was performed with anti-Flag antibody before probing with anti-hTERT or anti-HA antibodies as indicated besides each blot. Molecular weight markers are shown in kilodaltons. (B) H1299 cells co-transfected with Flag-hTERT and HA-ubiquitin were treated for 1 hour with the GA concentration indicated in the presence of 10 μM MG132. Immunoprecipitation was performed with anti-Flag antibody followed by immunoblotting using an anti-HA antibody probe. (C) H1299 cells co-transfected with Flag-hTERT and HA-ubiquitin were either untreated or treated for 2 hours with 10 μg/ml ALLnN as specified above each lane. Proteins were immunoprecipated with anti-Flag antibody followed by immunoblotting using an anti-HA antibody probe.
The human lung carcinoma cell line H1299 was cultured in RPMI-1640 medium, and the human fibrosarcoma cell line HT1080 was cultured in Dulbecco's modified Eagle's medium supplemented with 10% fetal bovine serum, 100 units/ml penicillin, and 100 μg/ml streptomycin in 5% CO2 at 37° C. The human osteosarcoma cell line Saos-2 was maintained in McCoy's 5A medium containing 15% fetal bovine serum, 100 units/ml penicillin, and 100 μg/ml streptomycin. To establish cell lines stably expressing MKRN1, the MKRN1-V5 construct was transfected into HT1080 cells using Lipofectamine Plus (Invitrogen, Carlsbad, Calif.) according to the manufacturer's instructions. As a control, HT1080 cells were also stably transfected with an empty vector. Multiple independent single clones were isolated and checked for protein expression by immunoblotting with anti-V5 antibody.
H1299 cells were transiently transfected with the expression vectors indicated in the figure legends using TransFast transfection reagent (Promega, Madison, Wis.) according to the manufacturer's instructions. Cells were lysed with buffer containing 0.5% NP-40, 50 mM Tris-HCl (pH 7.5), 150 mM NaCl, 2 mM phenyl methylsulphonyl fluoride. […]

[2] = system: hTERT; assay: Ubiquitination of hTERT in H1299 cells (immunoprecipitation, anti-HA immunoblot); type: cell-based, human; conditions: H1299 Flag-hTERT and HA-ubiquitin, MG132
Experimental: as §1
(§2) FIG. 4. MKRN1 functions as an E3 ubiquitin-ligase for hTERT in vitro and in vivo. (A) HA-tagged hTERT (residues 946-1132) was incubated MKRN1 or mutants in the presence of E1, E2, His6-ubiquitin (6×His tag disclosed as SEQ ID NO: 7). Samples were resolved by 6% SDS-PAGE and analyzed by immunoblotting with an anti-HA antibody probe. (B) H1299 cells were co-transfected with Flag-hTERT, HA-ubiquitin, MKRN1-V5, and together with either MKRN1^H307E-V5 or MKRN1^Δ^C-V5 as specified. Cells were untreated or treated with 10 μM MG132 for 2 hours. Anti-Flag immunoprecipitates and cell lysates were analyzed by immunoblotting with anti-HA antibody and anti-V5 antibody probes, respectively. (C) H1299 cells co-transfected with Flag-hTERT and HA-ubiquitin, and together with or without MKRN1-V5 as indicated were treated with 10 μM MG132 for the indicated times. Anti-Flag immunoprecipitates and cell lysates were analyzed by immunoblotting with anti-HA antibody and anti-V5 antibody probes, respectively.
H1299 cells were transiently transfected with the expression vectors indicated in the figure legends using TransFast transfection reagent (Promega, Madison, Wis.) according to the manufacturer's instructions. Cells were lysed with buffer containing 0.5% NP-40, 50 mM Tris-HCl (pH 7.5), 150 mM NaCl, 2 mM phenyl methylsulphonyl fluoride. After centrifugation at 12,000 rpm for 30 min, the supernatants were immunoprecipitated for 2 hours with anti-Flag (Sigma, St. Louis, Mo.) or anti-HA (Santa Cruz biotechnology, Santa Cruz, Calif.) antibodies and then incubated with Sepharose beads conjugated to Protein G (Amersham Biosciences Inc., Piscataway, N.J.). When ubiquitin conjugates of hTERT were detected, immunoprecipitation was performed with lysis buffer containing 0.1% SDS to dissociate its interacting proteins. Immunoblot analyses were performed using anti-hTERT (Santa Cruz biotechnology, Santa Cruz, Calif.), anti-V5 (Invitrogen, Carlsbad, Calif.), anti-HA, and anti-Flag antibodies.
GA-mediated protein degradation by the proteasome depends on conjugation of ubiquitin to the Hsp90 client protein (Isaacs et al. 2002; Citri et al. 2002). To determine whether hTERT is ubiquitinated in vivo prior to its degradation, H1299 cells co-transfected with Flag-tagged hTERT and HA-tagged ubiquitin constructs were treated with GA, ALLnN (a general proteasome inhibitor) or both. The immunoprecipitated products were evaluated by immunoblotting with selected probes as described in FIG. 2. […]

[3] = system: hTERT (residues 946-1132); assay: In vitro ubiquitination assay; type: biochemical, human; conditions: purified components, E1, E2, His6-ubiquitin, 30° C., 60 min
Experimental: as §2
GST-hTERT-HA expressed in bacteria was used as substrate for in vitro ubiquitination assay (Park et al. 2004). The ubiquitination reactions were carried out in buffer (50 mM Tris-HCl, pH 7.5, 2 mM ATP, 2.5 mM MgCl2, 5 mM dithiothreitol, and 0.05% NP-40) containing yeast E1 (0.05 μg), E2 (0.2 μg), and His6-ubiquitin (0.8 μg) (6×His disclosed as SEQ ID NO: 7) in a final volume of 30 μl. […]

Molecule: CC(C)C[C@H](NC(=O)[C@H]1O[C@@H]1C(=O)O)C(=O)NCCCCN=C(N)N [E-64]
- effect on GA-induced down-regulation of hTERT ([1]; H1299 Flag-hTERT, 10 μM pretreatment 2 hours, then GA 4 hours): had no effect
- hTERT expression levels, inhibitor alone ([1]; H1299 Flag-hTERT, 10 μM, absence of GA, relative to untreated controls): did not cause a significant change

Molecule: COC1=C2C[C@@H](C)C[C@H](OC)[C@H](O)[C@@H](C)/C=C(\C)[C@H](OC(N)=O)[C@@H](OC)/C=C\C=C(/C)C(=O)NC(=CC1=O)C2=O [GA, geldanamycin]
- hTERT protein eliminated ([1]; H1299 transfected with Flag-hTERT, 0.1 μM GA, within 2 hours): over 50%

B1: MKRN1^H307E: MKRN1 mutant with mutated histidine residue in the RING finger domain (protein)
chain: MAEAATPGTTATTSGAGAAAATAAAASPTPIPTVTAPSLGAGGGGGGSDGSGGGWTKQVTCRYFMHGVCKEGDNCRYSHDLSDSPYSVVCKYFQRGYCIYGDRCRYEHSKPLKQEEATATELTTKSSLAASSSLSSIVGPLVEMNTGEAESRNSNFATVGAGSEDWVNAIEFVPGQPYCGRTAPSCTEAPLQGSVTKEESEKEQTAVETKKQLCPYAAVGECRYGENCVYLHGDSCDMCGLQLLHPMDAAQRSQHIKSCIEAHEKDMELSFAVQRSKDMVCGICMEVVYEKANPSERRFGILSNCNETYCLKCIRKWRSAKQFESKIIKSCPECRITSNFVIPSEYWVEEKEEKQKLILKYKEAMSNKACRYFDEGRGSCPFGGNCFYKHAYPDAGREEPQRQKVGTSSRYRAQRRNHFWELIEERENSNPFDNDEEEVVTFELGEMLLMLLAAGGDDELTDSEDEWDLFHDELEDFYDLDL
modifications: left off: small tags and cut ends
- amount of ubiquitinated hTERT on co-expression [2]: significantly reduced
- ubiquitination of C-terminal domain of hTERT [3]: not
